In ChEMBL document CHEMBL1150501 (Bioorg Med Chem Lett, 1995):

Target: Glucagon receptor (Rattus norvegicus, UniProt P30082)
Experiment: pA2 value towards glucagon receptor relative to glucagon was calculated

Chain of Glucagon receptor (P30082 whole entry): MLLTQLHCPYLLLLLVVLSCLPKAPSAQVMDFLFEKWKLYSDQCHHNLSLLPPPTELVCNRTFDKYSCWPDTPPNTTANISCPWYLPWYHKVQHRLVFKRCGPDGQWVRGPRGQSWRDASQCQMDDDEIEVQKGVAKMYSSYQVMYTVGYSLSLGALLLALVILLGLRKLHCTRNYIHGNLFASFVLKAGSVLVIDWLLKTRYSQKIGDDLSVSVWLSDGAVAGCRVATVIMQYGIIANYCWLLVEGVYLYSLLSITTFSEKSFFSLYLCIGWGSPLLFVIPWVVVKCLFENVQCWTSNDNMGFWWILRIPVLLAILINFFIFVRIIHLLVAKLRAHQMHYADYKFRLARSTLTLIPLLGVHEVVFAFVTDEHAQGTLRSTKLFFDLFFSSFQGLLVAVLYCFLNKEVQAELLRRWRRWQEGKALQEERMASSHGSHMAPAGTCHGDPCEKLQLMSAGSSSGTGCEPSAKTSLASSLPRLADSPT

Kb: 6.31 nM
Substance: H-SQGTTSEYSKYLDSRRAQDFVQWLMNT-NH2
